Reference: PMC10176470, “Engaging a Non-catalytic Cysteine Residue Drives Potent and Selective Inhibition of Caspase-6” (Journal of the American Chemical Society, 2023)

Key:
Type in all cases: cell-based
[1] = biological target: proteins of HEK293T cells transiently overexpressing caspase-6 (Homo sapiens, UniProt Q99714); details: exp_ref Probe; protein HSD17B10 (Q99714); analysis C6
[2] = biological target: proteins of HEK293T cells transiently overexpressing caspase-6 (Homo sapiens, UniProt Q9Y265); details: Probe; protein RUVBL1 Q9Y265
[3] = biological target: proteins of HEK293T cells transiently overexpressing caspase-6 (Homo sapiens, UniProt P12268); details: exp_ref Probe; protein IMPDH2 (P12268); analysis C6
[4] = biological target: proteins of HEK293T cells transiently overexpressing caspase-6 (Homo sapiens, UniProt Q86YZ3); details: Probe; protein HRNR Q86YZ3
[5] = biological target: T1, proteins of HEK293T cells transiently overexpressing caspase-6 (Homo sapiens, UniProt O00410); details: protein IPO5 (O00410)
T1 sequence (O00410 1-1097): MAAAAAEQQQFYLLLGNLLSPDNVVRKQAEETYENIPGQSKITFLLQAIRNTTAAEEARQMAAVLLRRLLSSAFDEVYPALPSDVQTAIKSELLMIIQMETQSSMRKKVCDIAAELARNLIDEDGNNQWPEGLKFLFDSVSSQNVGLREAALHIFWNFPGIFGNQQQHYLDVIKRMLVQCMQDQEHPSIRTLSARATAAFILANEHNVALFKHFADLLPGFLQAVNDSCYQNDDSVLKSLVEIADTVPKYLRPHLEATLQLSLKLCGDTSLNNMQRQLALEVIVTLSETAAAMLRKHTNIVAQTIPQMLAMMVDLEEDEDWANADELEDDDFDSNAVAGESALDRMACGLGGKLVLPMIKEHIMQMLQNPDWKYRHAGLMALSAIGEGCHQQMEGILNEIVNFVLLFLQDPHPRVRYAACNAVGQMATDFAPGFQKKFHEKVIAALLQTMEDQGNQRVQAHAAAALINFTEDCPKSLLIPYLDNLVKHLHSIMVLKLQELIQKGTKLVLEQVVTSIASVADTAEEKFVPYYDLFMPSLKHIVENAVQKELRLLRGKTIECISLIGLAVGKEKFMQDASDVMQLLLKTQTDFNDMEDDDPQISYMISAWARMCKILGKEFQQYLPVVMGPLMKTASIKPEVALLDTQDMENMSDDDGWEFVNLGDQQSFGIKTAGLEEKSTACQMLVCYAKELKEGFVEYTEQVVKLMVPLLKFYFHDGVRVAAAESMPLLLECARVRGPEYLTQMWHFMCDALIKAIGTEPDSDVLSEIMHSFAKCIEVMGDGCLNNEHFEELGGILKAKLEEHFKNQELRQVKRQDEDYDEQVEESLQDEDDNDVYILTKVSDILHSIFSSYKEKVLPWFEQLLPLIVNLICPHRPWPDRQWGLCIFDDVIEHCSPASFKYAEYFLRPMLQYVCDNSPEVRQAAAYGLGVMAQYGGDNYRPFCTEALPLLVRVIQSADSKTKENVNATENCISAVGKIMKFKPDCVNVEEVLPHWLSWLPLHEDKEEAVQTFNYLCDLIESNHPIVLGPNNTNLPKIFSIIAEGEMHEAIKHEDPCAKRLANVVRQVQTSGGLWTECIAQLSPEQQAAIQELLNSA

[6] = biological target: proteins of HEK293T cells transiently overexpressing caspase-6 (Homo sapiens, UniProt Q00839); details: protein HNRNPU (Q00839)
[7] = biological target: proteins of HEK293T cells transiently overexpressing caspase-6 (Homo sapiens, UniProt P35579); details: Probe; protein MYH9 P35579
[8] = biological target: proteins of HEK293T cells transiently overexpressing caspase-6 (Homo sapiens, UniProt P18124); details: Probe; protein RPL7 P18124
[9] = biological target: proteins of HEK293T cells transiently overexpressing caspase-6 (Homo sapiens, UniProt P10155); details: Probe; protein TROVE2 P10155
[10] = biological target: proteins of HEK293T cells transiently overexpressing caspase-6 (Homo sapiens, UniProt P11586); details: Probe; protein MTHFD1 P11586
[11] = biological target: proteins of HEK293T cells transiently overexpressing caspase-6 (Homo sapiens, UniProt O15355); details: exp_ref Probe; protein PPM1G (O15355); analysis C6
[12] = biological target: proteins of HEK293T cells transiently overexpressing caspase-6 (Homo sapiens, UniProt P27348); details: exp_ref Probe; protein YWHAQ (P27348); analysis C6
[13] = biological target: proteins of HEK293T cells transiently overexpressing caspase-6 (Homo sapiens, UniProt P20700); details: exp_ref Probe; protein LMNB1 (P20700); analysis C6
[14] = biological target: proteins of HEK293T cells transiently overexpressing caspase-6 (Homo sapiens, UniProt Q9NR30); details: exp_ref Probe; protein DDX21 (Q9NR30); analysis C6
[15] = biological target: proteins of HEK293T cells transiently overexpressing caspase-6 (Homo sapiens, UniProt P33992); details: exp_ref Probe; protein MCM5 (P33992); analysis C6
proteins of HEK293T cells transiently overexpressing caspase-6 (Homo sapiens, UniProt P33992), sequence (P33992 whole entry): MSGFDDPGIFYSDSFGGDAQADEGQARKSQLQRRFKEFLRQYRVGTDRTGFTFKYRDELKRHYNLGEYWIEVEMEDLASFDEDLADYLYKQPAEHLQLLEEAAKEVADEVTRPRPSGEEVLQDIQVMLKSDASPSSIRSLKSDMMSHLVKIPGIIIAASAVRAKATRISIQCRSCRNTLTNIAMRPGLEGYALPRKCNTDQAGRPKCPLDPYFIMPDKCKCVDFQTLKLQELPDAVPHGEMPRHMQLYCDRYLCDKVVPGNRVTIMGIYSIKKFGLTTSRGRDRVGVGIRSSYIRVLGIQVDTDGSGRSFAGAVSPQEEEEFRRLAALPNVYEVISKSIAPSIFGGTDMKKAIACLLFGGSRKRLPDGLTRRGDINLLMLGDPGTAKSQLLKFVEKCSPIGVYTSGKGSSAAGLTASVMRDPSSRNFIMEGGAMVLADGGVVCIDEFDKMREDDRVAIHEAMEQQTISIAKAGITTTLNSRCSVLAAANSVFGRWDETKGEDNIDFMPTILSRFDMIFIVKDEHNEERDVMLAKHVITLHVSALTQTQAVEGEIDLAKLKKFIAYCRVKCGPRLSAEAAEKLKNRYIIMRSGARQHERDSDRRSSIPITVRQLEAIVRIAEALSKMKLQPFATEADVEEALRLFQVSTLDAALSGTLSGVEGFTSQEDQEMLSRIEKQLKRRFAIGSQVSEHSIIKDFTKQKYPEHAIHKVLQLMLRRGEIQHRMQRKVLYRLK

proteins of HEK293T cells transiently overexpressing caspase-6 (Homo sapiens, UniProt Q00839), sequence (Q00839 whole entry): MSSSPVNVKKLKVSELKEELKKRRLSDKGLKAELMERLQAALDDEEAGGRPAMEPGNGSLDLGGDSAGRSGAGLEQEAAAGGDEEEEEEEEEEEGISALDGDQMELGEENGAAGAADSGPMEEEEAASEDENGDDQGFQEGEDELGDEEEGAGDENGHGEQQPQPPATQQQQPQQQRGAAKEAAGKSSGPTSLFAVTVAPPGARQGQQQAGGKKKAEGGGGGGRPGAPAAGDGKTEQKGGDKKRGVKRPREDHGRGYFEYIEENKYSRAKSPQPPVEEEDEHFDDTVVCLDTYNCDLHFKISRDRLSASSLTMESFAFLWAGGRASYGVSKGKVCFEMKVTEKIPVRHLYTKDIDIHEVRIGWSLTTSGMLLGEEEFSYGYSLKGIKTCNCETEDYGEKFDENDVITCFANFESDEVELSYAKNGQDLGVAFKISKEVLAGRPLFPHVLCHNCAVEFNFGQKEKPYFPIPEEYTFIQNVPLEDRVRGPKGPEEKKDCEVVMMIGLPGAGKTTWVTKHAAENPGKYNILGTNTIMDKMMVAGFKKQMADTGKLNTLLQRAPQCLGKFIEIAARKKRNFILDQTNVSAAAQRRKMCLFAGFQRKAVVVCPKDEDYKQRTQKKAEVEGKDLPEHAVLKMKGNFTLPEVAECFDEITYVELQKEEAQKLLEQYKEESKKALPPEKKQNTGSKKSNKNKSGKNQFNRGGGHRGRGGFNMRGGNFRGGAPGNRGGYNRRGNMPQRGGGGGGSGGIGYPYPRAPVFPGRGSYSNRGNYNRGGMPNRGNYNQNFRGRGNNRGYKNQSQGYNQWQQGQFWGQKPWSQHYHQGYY
proteins of HEK293T cells transiently overexpressing caspase-6 (Homo sapiens, UniProt P27348), sequence (P27348 whole entry): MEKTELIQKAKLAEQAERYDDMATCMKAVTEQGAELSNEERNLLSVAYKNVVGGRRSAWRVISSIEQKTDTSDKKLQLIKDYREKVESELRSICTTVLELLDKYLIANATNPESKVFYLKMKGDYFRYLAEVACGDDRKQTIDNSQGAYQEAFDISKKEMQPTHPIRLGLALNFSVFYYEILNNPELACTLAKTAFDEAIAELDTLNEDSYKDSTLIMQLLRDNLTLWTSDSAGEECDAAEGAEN
proteins of HEK293T cells transiently overexpressing caspase-6 (Homo sapiens, UniProt P10155), sequence (P10155 whole entry): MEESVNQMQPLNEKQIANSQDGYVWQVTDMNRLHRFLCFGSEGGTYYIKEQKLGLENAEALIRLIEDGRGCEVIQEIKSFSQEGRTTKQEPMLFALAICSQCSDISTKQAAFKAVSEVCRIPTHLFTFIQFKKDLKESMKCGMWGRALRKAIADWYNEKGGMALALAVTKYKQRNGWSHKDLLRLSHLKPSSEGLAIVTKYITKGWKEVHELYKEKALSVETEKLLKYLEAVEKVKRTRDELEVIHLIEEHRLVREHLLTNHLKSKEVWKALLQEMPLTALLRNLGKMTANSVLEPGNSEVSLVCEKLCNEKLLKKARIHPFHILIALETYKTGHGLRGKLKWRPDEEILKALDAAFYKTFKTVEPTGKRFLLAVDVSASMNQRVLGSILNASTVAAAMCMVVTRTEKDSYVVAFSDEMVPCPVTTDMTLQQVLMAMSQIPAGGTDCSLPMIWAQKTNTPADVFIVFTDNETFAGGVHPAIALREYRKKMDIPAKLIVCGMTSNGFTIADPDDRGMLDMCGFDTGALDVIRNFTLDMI
proteins of HEK293T cells transiently overexpressing caspase-6 (Homo sapiens, UniProt P20700), sequence (P20700 whole entry): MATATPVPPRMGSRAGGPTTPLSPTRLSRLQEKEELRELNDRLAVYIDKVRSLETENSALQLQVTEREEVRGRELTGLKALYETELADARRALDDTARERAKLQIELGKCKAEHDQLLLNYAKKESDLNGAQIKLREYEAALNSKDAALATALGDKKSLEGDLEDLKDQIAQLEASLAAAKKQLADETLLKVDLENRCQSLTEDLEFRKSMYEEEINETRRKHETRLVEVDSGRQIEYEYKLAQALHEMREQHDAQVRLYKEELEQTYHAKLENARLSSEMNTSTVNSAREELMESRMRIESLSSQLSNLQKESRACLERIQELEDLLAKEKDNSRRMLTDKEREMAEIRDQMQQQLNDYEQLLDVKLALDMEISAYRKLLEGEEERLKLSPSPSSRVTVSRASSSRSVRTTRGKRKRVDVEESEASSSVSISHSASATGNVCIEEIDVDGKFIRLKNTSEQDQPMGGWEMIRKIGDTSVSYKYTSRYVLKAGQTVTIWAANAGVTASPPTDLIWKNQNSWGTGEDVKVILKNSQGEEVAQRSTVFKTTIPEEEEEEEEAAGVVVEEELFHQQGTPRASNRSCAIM
proteins of HEK293T cells transiently overexpressing caspase-6 (Homo sapiens, UniProt Q9NR30), sequence (Q9NR30 whole entry): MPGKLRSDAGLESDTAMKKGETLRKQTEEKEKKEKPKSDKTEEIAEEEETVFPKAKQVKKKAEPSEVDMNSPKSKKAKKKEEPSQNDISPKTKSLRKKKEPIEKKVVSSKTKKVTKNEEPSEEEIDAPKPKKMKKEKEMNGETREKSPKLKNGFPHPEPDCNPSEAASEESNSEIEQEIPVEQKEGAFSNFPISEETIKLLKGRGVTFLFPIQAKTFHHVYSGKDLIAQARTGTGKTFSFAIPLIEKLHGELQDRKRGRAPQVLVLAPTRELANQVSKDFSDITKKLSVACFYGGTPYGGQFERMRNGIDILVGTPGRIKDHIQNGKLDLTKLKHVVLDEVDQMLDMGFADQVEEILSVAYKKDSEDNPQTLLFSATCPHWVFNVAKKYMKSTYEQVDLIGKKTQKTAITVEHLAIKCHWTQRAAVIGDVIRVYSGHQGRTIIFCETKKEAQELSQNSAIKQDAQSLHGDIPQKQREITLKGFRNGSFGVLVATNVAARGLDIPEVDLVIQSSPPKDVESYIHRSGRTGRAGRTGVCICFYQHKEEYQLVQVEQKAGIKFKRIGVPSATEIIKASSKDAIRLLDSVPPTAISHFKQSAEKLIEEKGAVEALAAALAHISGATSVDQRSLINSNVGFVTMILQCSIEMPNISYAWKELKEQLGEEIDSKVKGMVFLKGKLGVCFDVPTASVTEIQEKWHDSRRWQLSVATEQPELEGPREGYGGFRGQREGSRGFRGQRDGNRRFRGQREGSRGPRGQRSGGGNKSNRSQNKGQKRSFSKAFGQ
proteins of HEK293T cells transiently overexpressing caspase-6 (Homo sapiens, UniProt O15355), sequence (O15355 whole entry): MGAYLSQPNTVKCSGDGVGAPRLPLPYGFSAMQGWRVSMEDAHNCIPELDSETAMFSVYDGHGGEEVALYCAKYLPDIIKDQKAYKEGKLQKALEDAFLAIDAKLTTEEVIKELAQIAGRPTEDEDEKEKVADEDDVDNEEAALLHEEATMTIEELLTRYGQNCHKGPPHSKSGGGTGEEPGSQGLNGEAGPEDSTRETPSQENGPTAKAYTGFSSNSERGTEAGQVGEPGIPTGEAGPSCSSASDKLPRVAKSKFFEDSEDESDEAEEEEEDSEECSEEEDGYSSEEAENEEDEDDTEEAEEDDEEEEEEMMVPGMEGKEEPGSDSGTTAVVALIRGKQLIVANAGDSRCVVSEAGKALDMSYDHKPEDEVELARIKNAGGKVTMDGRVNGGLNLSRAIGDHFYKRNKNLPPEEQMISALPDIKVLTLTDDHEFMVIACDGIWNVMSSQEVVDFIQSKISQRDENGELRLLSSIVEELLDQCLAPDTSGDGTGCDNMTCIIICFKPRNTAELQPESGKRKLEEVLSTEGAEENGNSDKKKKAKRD
proteins of HEK293T cells transiently overexpressing caspase-6 (Homo sapiens, UniProt Q99714), sequence (Q99714 whole entry): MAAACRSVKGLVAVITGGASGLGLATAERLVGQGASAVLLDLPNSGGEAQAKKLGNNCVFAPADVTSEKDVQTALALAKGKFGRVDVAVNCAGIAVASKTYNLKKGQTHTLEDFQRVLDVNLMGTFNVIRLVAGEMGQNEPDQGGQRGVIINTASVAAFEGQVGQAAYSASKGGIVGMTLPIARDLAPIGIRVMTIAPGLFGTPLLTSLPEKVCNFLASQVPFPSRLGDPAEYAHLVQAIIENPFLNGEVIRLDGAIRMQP
proteins of HEK293T cells transiently overexpressing caspase-6 (Homo sapiens, UniProt Q9Y265), sequence (Q9Y265 whole entry): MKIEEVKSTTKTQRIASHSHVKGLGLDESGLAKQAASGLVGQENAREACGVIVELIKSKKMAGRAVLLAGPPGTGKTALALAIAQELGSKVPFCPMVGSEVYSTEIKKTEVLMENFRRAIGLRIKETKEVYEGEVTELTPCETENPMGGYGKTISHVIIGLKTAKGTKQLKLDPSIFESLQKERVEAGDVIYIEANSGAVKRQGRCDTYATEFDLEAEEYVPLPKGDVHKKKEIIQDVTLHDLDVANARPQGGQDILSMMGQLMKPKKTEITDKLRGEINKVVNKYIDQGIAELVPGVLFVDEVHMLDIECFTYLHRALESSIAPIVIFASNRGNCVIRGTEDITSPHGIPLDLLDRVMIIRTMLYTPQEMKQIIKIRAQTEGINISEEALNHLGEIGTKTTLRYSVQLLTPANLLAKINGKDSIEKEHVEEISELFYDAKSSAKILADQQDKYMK

`C#CCOc1ccc([C@@H]2C[C@@H](C(=O)Nc3ccc(OC(F)(F)F)cc3)CN(S(=O)(=O)C=C)C2)cc1` (relative stereo) [13-t] gave an enrich.exp.med [1] of 0.1684, an enrich.exp.med [2] of -0.45 and an enrich.exp.med [3] of 0.7134. The enrich.exp.med [4] was -8.887, the enrich.exp.med ([5]; exp_ref Probe, analysis C6) was 0.788 and the enrich.exp.med.lin [5] was 1.727. It also gave an enrich.exp.med.log2 [5] of 0.788, an enrich.exp.med ([6]; exp_ref Probe, analysis C6) of 0.5889 and an enrich.exp.med.lin [6] of 1.5041. For the same compound, the enrich.exp.med.log2 [6] was 0.5889, the enrich.exp.med [7] was -0.6242 and the enrich.exp.med [8] was -0.45. It also gave an enrich.exp.med [9] of -1.006, an enrich.exp.med [10] of -1.178 and an enrich.exp.med [11] of -0.08092. For the same compound, the enrich.exp.med [12] was 0.7591, the enrich.exp.med [13] was -0.2652 and the enrich.exp.med [14] was 0.5934. For the same compound, the enrich.exp.med [15] was 1.028.
